Test results taken from US20210161976A1, “BACTERIA ENGINEERED TO TREAT DISEASES THAT BENEFIT FROM REDUCED GUT INFLAMMATION AND/OR TIGHTENED GUT MUCOSAL BARRIER” (Synlogic Operating Company, Inc., priority 2016, published 2021).
Where two headings read alike, the source gives them in different places.

Legend:
[1] = target: T1, PXR (Mus musculus, UniProt O54915); conditions: in vivo; cited from earlier work
T1 sequence (O54915 1-431): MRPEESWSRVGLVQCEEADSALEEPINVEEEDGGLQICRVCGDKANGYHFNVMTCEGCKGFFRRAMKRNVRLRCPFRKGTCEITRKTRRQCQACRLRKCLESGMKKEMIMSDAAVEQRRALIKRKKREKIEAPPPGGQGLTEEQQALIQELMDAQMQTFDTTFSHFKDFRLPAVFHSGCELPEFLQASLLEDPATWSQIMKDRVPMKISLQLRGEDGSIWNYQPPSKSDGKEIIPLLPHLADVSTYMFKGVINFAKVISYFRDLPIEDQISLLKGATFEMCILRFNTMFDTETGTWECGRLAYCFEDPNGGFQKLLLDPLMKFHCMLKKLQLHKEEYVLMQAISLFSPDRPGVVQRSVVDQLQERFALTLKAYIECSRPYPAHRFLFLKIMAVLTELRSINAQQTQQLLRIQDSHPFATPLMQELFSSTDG

[2] = system: Ptet-GFP reporter construct; assay: ATC-inducible Ptet-GFP reporter construct, fluorescence in plate reader; conditions: two-fold decreased inducer, 96-well, relative florescence units
From the text: When induced by their cognate inducers, these constructs express GFP, which is detected by monitoring fluorescence in a plate reader at an excitation/emission of 395/509 nm, respectively.
These constructs, when induced by their cognate inducer, lead to high level expression of GFP, which is detected by monitoring fluorescence in a plate reader at an excitation/emission of 395/509 nm, respectively. […] Promoter activity is expressed as relative florescence units.

[3] = target: T2, IL-22 (Homo sapiens, UniProt Q9GZX6); assay: Anti-IL-22 neutralizing antibody inhibition of STAT3 activation in Colo205 cells; type: cell-based; conditions: IC50 of anti-IL-22 neutralizing antibody against STAT3 activation by the listed IL-22 source (3 ng/mL)
T2 construct: IL-22 fused to a cleavable PhoA-secretion tag to mediate Sec-dependent secretion into the periplasm; PhoA secretion tag (21 amino acids) (N, cleaved yes); made in house; filtered culture supernatant
T2 sequence (Q9GZX6 34-179): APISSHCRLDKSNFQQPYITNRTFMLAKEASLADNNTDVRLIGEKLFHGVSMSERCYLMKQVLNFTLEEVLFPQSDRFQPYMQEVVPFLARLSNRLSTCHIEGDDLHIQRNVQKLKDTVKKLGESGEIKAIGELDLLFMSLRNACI
Protocol: To verify that the STAT3 activation elicited by supernatants from SYN3001 was indeed due to IL-22 signaling, Colo205 cells were stimulated with IL-22 supernatants derived from SYN3001 at 3 ng/mL in the presence of increasing concentrations of an anti-IL-22 neutralizing antibody. rLI-22 in the absence of the neutralizing antibody served as a positive control.

[4] = system: STAT3; assay: STAT3 activation in Colo205 cells by IL-22 containing supernatants; type: cell-based; conditions: average of 5 experiments
Protocol: To assess the biological activity of IL-22 produced by SYN3001 (IL-22 secreting strain), titrations of SYN3001 and SYN3000 (DOM mutant, non IL-22 secreting negative control strain) supernatants (starting at 150 ng/mL and titrated in 1:3 dilutions) were added to Colo205 cells and the activation of STAT3 was assessed. […] In contrast, SYN3000 had no effect on STAT3 activity.

[5] = system: LPS-induced IFNγ secretion; assay: LPS-induction of IFNγ cell-based assay in human PBMCs (ELISA)
Protocol: To assess the activity of the acetate-producing strain SYN2001 in vitro, we employed the LPS-induction of IFNγ cell-based assay. Frozen normal human PBMCs from two independent donors (Lot #'s A4956 and A4924) were plated in triplicate at 1×10^6 cells/mL in 96-well plates in complete media. The cells were then incubated for 15 minutes with media containing either a dilution series of synthetic acetate (40 mM-0.08 Mm), SYN2001 supernatant (30 mM-0.03 mM acetate concentrations based on LC-MS determination) or untreated (negative control). After the 15-minute incubation period, complete media containing LPS was added to the cells to a final concentration of 100 ng/mL and the cells were further incubated overnight under these conditions. The following day supernatants were harvested from each of the different conditions and the IFNγ levels assessed by ELISA. […] We noted that the absolute levels of IFNγ production in the SYN2001 experiments was higher than in the purified acetate experiments, likely due to residual additional LPS in the supernatants from the bacterially-derived acetate. Nonetheless, the IC50s observed for the two acetate sources were very similar.

[6] = system: gut motility and inflammation; conditions: rats, early phase of acute colitis; cited from earlier work
[7] = system: PnsrR-GFP reporter construct; assay: Nitric oxide inducible PnsrR-GFP reporter construct, fluorescence in plate reader; type: cell-based, E. coli Nissle; conditions: DETA-NO, two-fold decreased inducer, 96-well, relative florescence units
[8] = system: HT-29 colon adenocarcinoma cells; assay: Cell viability assay in HT-29 cells (trypan blue, Cellometer K2); conditions: 4 days, data not shown
[9] = system: neutrophils; conditions: cited from earlier work

For `O=C(O)CCc1c[nH]c2ccccc12` [indole 3-propionic acid (IPA), indole 3-propionic acid], the PXR ligand [1] is listed as “ligand for PXR”.
With anhydrous tetracycline [ATC] the “induction of GFP expression” value [2] was “able to induce the expression of GFP”.
With rIL-22 the “IC50” value [3] was 3.70 ng/mL and the “EC50” value [4] was 1.56 ng/mL.
For `CC(=O)O` [Acetate], the EC50 ([5]; human PBMC, donor 1, 3 experiments in triplicate, LPS 100 ng/mL, read-out: EC50 on LPS-induced IFNγ secretion, Donor 1) was 3120 µM, the EC50 ([5]; human PBMC, donor 2, 3 experiments in triplicate, LPS 100 ng/mL, read-out: EC50 on LPS-induced IFNγ secretion, Donor 2) was 2180 µM and the “LPS-induced secretion of IFNγ” value ([5]; primary human PBMC, two donors, FIG. 26G/26H) was “dose-dependent decrease”.
For `O=C(O)c1cc(=O)c2ccccc2[nH]1` [kynurenic acid], the “gut motility and inflammation” value [6] is listed as “decreased gut motility and inflammation”.
For `NCCN(CCN)/[N+]([O-])=N/O` [NO, diethylenetriamine-nitric oxide adduct], the “induction of GFP expression” value [7] was “able to induce the expression of GFP”.
For `CCCC(=O)O` [synthetic butyrate, butyrate], the “effect on cell viability” value [8] was “did not have any appreciable effect”.
For `Nc1ccccc1C(=O)CC(N)C(=O)O` (stereo not shown) [Kynurenine], the apoptosis in neutrophils [9] is listed as “induce apoptosis”.
`CC(=O)O` [Acetate (synthetic)] showed an EC50 ([5]; decrease of LPS-induced IFNγ, human PBMCs donor 1, LPS 100 ng/mL, acetate concentration, read-out: EC50-donor 1) of 3120 µM and an EC50 ([5]; decrease of LPS-induced IFNγ, human PBMCs donor 2, LPS 100 ng/mL, acetate concentration, read-out: EC50-donor 2) of 2180 µM.
